One block for each compound: values may come before it.
Legend:
[1] = tested on: JAK1, 2; experiment: In vitro cell assay, JAK1, 2 (STAT phosphorylation ELISA); type: cell-based; conditions: read-out: IC50, Cell Biology JAK1, 2
Method: UT-7/EPO cell is an erythroleukemic cell line which expresses an EPO receptor, and is frequently used in many previous studies as a model to assess EPO-induced STAT5 phosphorylation mediated by JAK1 and JAK2 activity. Accordingly, in order to evaluate the activity of JAK1 and JAK2, UT-7/EPO cells were prepared.
The test material was dissolved in DMSO, prepared at 10 mM, divided by 20 μL each, and stored at −20° C.
• EPO: 2000 U/0.5 mL of stock was divided by 50 μL each and stored under refrigeration. • IL-2: 200 μg/ml of stock was prepared, divided by 5 μL each, and stored, and then treated at 2 ng/ml. (IL-2 1 μg/ml=13000 U/ml) • IFN-alphaB2: […] of stock was diluted and used, and then treated to reach 30000 U/ml.
• UT-7/EPO cell assay: MEM-alpha (Gibco, cat #12561-056) was prepared to contain 5% FBS and 1% P/S before use. • NK-92 cell assay: A preparation was made to contain HBSS, 1% FBS and 1% P/S before use. • U2OS cell assay: A preparation was made to contain HBSS, 1% FBS and 1% P/S before use.
The cultured cells were centrifuged (1,000 rpm, 5 minutes) and washed with PBS. The size of cell lines and appropriate reaction concentration thereof were set and the cell lines were seeded in a 96-well plate at 1×10^5 to 10^6 cells/well (50 μL/well). […]

[2] = tested on: HDM-induced animal model (NC/Nga mice); experiment: HDM-induced atopic dermatitis model (topical); type: in vivo
Method: After the back of the ears and neck of the NC/Nga mice was shaved with a razor, a proper amount of depilatory was applied and depilation was performed. After the depilatory was wiped out, about 100 mg of an atopic dermatitis-inducing reagent (Biostir, Japan) was uniformly applied to the back of the ears and neck using a micro pipette tip.
After hair removal was performed using a razor as needed, 150 μL of 4% SDS aqueous solution was uniformly applied to the back of the ears and neck using a micro pipette. After drying with cold air using a dryer, the solution was naturally dried for about two to three hours. About 100 mg of the AD-inducing reagent was uniformly applied to the back of the ears and neck using a micro pipette tip. All treatments were performed 11 times twice a week for a total of six weeks.
As a test material, an appropriate amount of phosphate in Compound 1 obtained according to Example 3 was weighed and then prepared by dissolving in a local vehicle (acetone:DMSO-7:1 v/v). At the time of preparation and administration, the test material was maintained in a light-shielding state, and was prepared and used every three days under the conditions of light-shielding refrigeration.
The administration of the test material was started from the time when the atopic score reached 2.1 to 2.3 points, and was directly applied to the center of the skin twice/day until the day of autopsy from the start date of administration of the test material (Day 0) for three weeks.
The AD-inducing material was applied and sensitized 24 hours before the autopsy, and the drug was administered and applied one hour before the autopsy. […]
To evaluate atopic dermatitis, evaluation of a skin clinical index (Matsuda et al., 1997) was performed from week 0 of the onset of atopic dermatitis. […] After that, the sum of the scores for each item was evaluated as a final grade.
An IgE concentration in blood was analyzed with serum obtained by centrifuging the blood collected on the day of autopsy, and IL-1B, IL-4, IL-13, TNF-α, IL-6, and IL-31 were analyzed using the extracted skin. […]

[3] = Hygroscopicity evaluation; type: physicochemical; conditions: for Individual related material: in %
Source text: Samples were placed in a glass desiccator in which relative humidity was adjusted to 33%, 53%, 75%, and 93%, and then stored for two and four weeks to be evaluated.

IC50 [1]: 18 nM
SMILES: C[C@@H]1CN(C(=O)CC#N)CC=C1c1cc(NC(=O)C2CC2)nc2[nH]ccc12 [Compound 1, (S)—N-(4-(1-(2-cyanoacetyl)-3-methyl-1,2,3,6-tetrahydropyridin-4-yl)-1H-pyrrolo[2,3-b]pyridin-6-yl)cyclopropanecarboxamide]
Atopic dermatitis-related cytokines ([2]; skin, FIG. 30): decrease in atopic dermatitis-related cytokines
Serum IgE levels ([2]; twice/day for three weeks, FIG. 29): decreased compared to the control group

Total related material ([3]; Initial): 0.37%
Water ([3]; Initial): 0.61%
Individual related material ([3]; Initial): 0.07
Total related material ([3]; relative humidity 33%, 2 W): 0.43%
Water ([3]; relative humidity 33%, 2 W): 0.41%
Individual related material ([3]; relative humidity 33%, 2 W): 0.07
Total related material ([3]; relative humidity 33%, 4 W): 0.41%
Water ([3]; relative humidity 33%, 4 W): 0.53%
Individual related material ([3]; relative humidity 33%, 4 W): 0.08
Total related material ([3]; relative humidity 53%, 2 W): 0.43%
Water ([3]; relative humidity 53%, 2 W): 0.53%
Individual related material ([3]; relative humidity 53%, 2 W): 0.08
Total related material ([3]; relative humidity 53%, 4 W): 0.35%
Water ([3]; relative humidity 53%, 4 W): 0.66%
Individual related material ([3]; relative humidity 53%, 4 W): 0.07
Total related material ([3]; relative humidity 75%, 2 W): 0.44%
Water ([3]; relative humidity 75%, 2 W): 0.60%
Individual related material ([3]; relative humidity 75%, 2 W): 0.08
Total related material ([3]; relative humidity 75%, 4 W): 0.39%
Water ([3]; relative humidity 75%, 4 W): 0.81%
Individual related material ([3]; relative humidity 75%, 4 W): 0.07
Total related material ([3]; relative humidity 93%, 2 W): 0.41%
Water ([3]; relative humidity 93%, 2 W): 1.17%
Individual related material ([3]; relative humidity 93%, 2 W): 0.08
Total related material ([3]; relative humidity 93%, 4 W): 0.33%
Water ([3]; relative humidity 93%, 4 W): 0.97%
Individual related material ([3]; relative humidity 93%, 4 W): 0.07
SMILES: C[C@@H]1CN(C(=O)CC#N)CC=C1c1cc(NC(=O)C2CC2)nc2[nH]ccc12 [Example 3, (S)—N-(4-(1-(2-cyanoacetyl)-3-methyl-1,2,3,6-tetrahydropyridin-4-yl)-1H-pyrrolo[2,3-b]pyridin-6-yl)cyclopropanecarboxamide]
Skin severity scores (clinical atopic dermatitis score) ([2]; twice/day for three weeks, all dosed groups, FIG. 28): significantly reduced
